Results from article PMC8458281, “Computational modeling and experimental validation of the EPI-X4/CXCR4 complex allows rational design of small peptide antagonists” (Communications Biology, 2021).

Legend:
[1] = system: CXCR4 E277A; experiment: 12G5 antibody competition, 293T cells transfected with CXCR4 E277A; type: binding, human; details: IC50 on CXCR4 E277A relative to wt
Procedure: (§1) Fig. 4 The interactions of EPI-X4 and the EPI-X4 derivatives WSC02 and JM#21 with point-mutated CXCR4 were assessed by an antibody competition assay. Amino acid substitutions were introduced in the sequence of CXCR4 by site-directed mutagenesis, cloned into an IRES-eGFP expression vector, and transfected into 293 T cells. Afterward, cells were incubated with serially diluted EPI-X4 (a, b), WSC02 (c, d), or JM#21 (e, f) in presence of a constant concentration of CXCR4 specific antibody (clone 12G5). After 2 h, bound antibody was analyzed by flow cytometry. a, c, e) Representative dose-dependent replacement of 12G5 antibody by peptides. b, d, f) IC50 values were calculated by nonlinear regression. Shown are data derived from at least three individual experiments ± SEM. IC50 values were set to 1000 µM (EPI-X4 and WSC02) or 100 µM (JM#21) if the value exceeds the maximally used concentration. *p ≤ 0.05, ***p ≤ 0.001 (one-way ANOVA for comparison with wt). For IC50 values see Table 1. For all binding curves see also Fig. S8.
(§2) Mutated CXCR4 constructs were transfected into 293 T cells that have a very low endogenous expression level of wild-type CXCR4. Transfected cells were then analyzed for CXCR4 surface expression (Fig. S5a) and EPI-X4 binding using a flow cytometry-based antibody competition assay (Fig. S5b, c)[33]. […]

[2] = system: CXCR4 V112L; experiment: 12G5 antibody competition, 293T cells transfected with CXCR4 V112L; type: binding, human; details: IC50 on CXCR4 V112L relative to wt
Procedure: as §1, §2

[3] = system: CXCR4 D97E + V112A; experiment: 12G5 antibody competition, 293T cells transfected with CXCR4 D97E + V112A; type: binding, human; details: IC50 on CXCR4 D97E + V112A relative to wt
Procedure: as §1, §2

[4] = system: CXCR4 V112A + L41A; experiment: 12G5 antibody competition, 293T cells transfected with CXCR4 V112A + L41A; type: binding, human; details: IC50 on CXCR4 V112A + L41A relative to wt
Procedure: as §1, §2

[5] = system: CXCR4 D262A; experiment: 12G5 antibody competition, 293T cells transfected with CXCR4 D262A; type: binding, human; details: IC50 on CXCR4 D262A relative to wt
Procedure: as §1, §2

[6] = system: CXCR4 D97N; experiment: 12G5 antibody competition, 293T cells transfected with CXCR4 D97N; type: binding, human; details: IC50 on CXCR4 D97N relative to wt
Procedure: as §1, §2

[7] = biological target: T1, CXCR4 V112A + L41A (human, UniProt P61073-1 1-352, L41A | V112A); experiment: flow cytometry on cells; 12G5 antibody competition on 293T cells transiently transfected with CXCR4 wt or mutants (IRES-eGFP vector), eGFP-positive cells gated; serially diluted peptide with a constant concentration of CXCR4 antibody clone 12G5, 2 h; bound antibody read; IC50 by nonlinear regression; details: one partner purified
T1 construct: human CXCR4, isoform 1 or b; also called L41A plus V112A; source: 293T cells, transiently transfected (pcDNA3.1 CXCR4-IRES-eGFP), on cells

[8] = biological target: T2, CXCR4 D97S (human, UniProt P61073-1 1-352, D97S); experiment: as above; details: one partner purified
T2 construct: human CXCR4, isoform 1 or b; source: 293T cells, transiently transfected (pcDNA3.1 CXCR4-IRES-eGFP), on cells

[9] = biological target: T3, CXCR4 D97E + V112L (human, UniProt P61073-1 1-352, D97E | V112L); experiment: as above; details: one partner purified
T3 construct: human CXCR4, isoform 1 or b; also called D97E plus V112L; source: 293T cells, transiently transfected (pcDNA3.1 CXCR4-IRES-eGFP), on cells
T3 sequence (P61073 whole entry D97E/V112L, canonical isoform): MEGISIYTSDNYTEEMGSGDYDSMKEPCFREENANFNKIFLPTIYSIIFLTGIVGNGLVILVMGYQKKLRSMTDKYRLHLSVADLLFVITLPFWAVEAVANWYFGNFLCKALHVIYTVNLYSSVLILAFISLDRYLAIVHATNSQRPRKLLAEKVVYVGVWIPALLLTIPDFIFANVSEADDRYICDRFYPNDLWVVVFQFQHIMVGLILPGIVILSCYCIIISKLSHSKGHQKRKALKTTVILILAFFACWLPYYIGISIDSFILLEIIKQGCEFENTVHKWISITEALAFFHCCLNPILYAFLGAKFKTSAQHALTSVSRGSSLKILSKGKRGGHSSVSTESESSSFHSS

T2 sequence (P61073 whole entry D97S, canonical isoform): as the sequence (P61073 whole entry D97E/V112L, canonical isoform) above, with E97S, L112V counted along it
T1 sequence (P61073 whole entry L41A/V112A, canonical isoform): as the sequence (P61073 whole entry D97E/V112L, canonical isoform) above, with L41A, E97D, L112A counted along it

Molecule | Fold change [1] | Fold change [2] | Fold change [3] | Fold change [4] | Fold change [5] | Fold change [6] | IC50 [7] [µM] | IC50 [8] [µM] | IC50 [9] [µM]
IVRWSKKVPCVS [WSC02, first-generation C-terminally truncated 12-mer derivative of EPI-X4 with four substitutions] | 0.7 | 0.4 | 1.5 | 4 | 0.4 | 466 | – | – | –
LVRYTKKVPQVSTPTL (source: synthetic peptide (Fmoc solid-phase synthesis, HPLC-purified)) [EPI-X4 (Alb408-423)] | – | – | – | – | – | – | 78 | 785 | 223
